# According to patent US8309570B2, “Treatment of central neuropathic pain” (Analgesic Neuropharmaceuticals, LLC, priority 2001, dated 2012):
# Entries after “also recorded” stand apart in the source; their conditions may differ. Structures can show the parent of a compound that is named as a salt.
# Assays:
# [1] = test system: central neuropathic pain following traumatic spinal cord injury; experiment: Randomized, double-blind, double-dummy, 2x2 factorial crossover trial: spontaneous pain, pain relief, patient satisfaction; format: in vivo, human; conditions: for patients choosing treatment as best pain relief / patients choosing treatment as best, balance between analgesia and side effects: at completion of the study, p=0.04; for SCI (spontaneous) pain compared to placebo: chronic oral administration; for overall patient satisfaction at the end of each treatment period, compared to placebo: dextromethorphan p<0.001, gabapentin p<0.01, combination p<0.001; for patients with at least moderate or better pain relief: of 18 patients, end of 5-week treatment
# Method: Central neuropathic pain following traumatic spinal cord injury (SCI) may be severe and refractory to standard analgesics. Pharmacologic agents that target distinct pathophysiological pain mechanisms theoretically could provide pain relief for these patients. The analgesic efficacy of dextromethorphan and gabapentin in combination, dextromethorphan alone, gabapentin alone, and placebo, in patients with pain following SCI was evaluated in a randomized, double-blind, double-dummy, 2×2 factorial, Latin Square crossover trial, we evaluated the four treatments. Each treatment was titrated over 4 weeks and maintained at the individual's […] until the end of Week 5. Each treatment period was followed by a 1-week washout period or until pain returned to baseline. Primary efficacy measure was mean pain intensity during the 5-week treatment period, measured by the 20-point Gracely pain intensity scale.
# Patients with 1) central neuropathic pain secondary to traumatic SCI in persons >18 years of age, 2) moderate pain for at least 50% of the day for at least 3 months, 3) concurrent use of no more than two analgesics at a stable dose (e.g. tricyclic antidepressants, anticonvulsants, nonsteroidal antiinflammatory drugs, or limited use of low-potency short-acting opioids), and 4) 100% compliance in rating their overall pain intensity 5-times daily in a diary for 1 week, were recruited nationwide between July 1997 and April 1999 using written announcements and by physician referrals.
# (§1) All patients were followed as outpatients. Patients were randomly assigned to a sequence of the 4 treatments. Each of the 4 treatment periods consisted of 5 weeks. Each treatment period was separated by a 1-week washout period, with the requirement that pain return to baseline level. Dextromethorphan (Endo Inc., Neptune, N.J.; and its externally identical placebo) and gabapentin (Neurontin, Pfizer, Inc., Ann Arbor, Mich.; and its externally identical placebo) were dispensed using a double-dummy design; thus, the dextromethorphan:gabapentin dose-ratio was maintained at 1:5. Subjects started at 120 mg/day of dextromethorphan vs. placebo and 600 mg/day of gabapentin vs. placebo, and titrated according to a fixed schedule until they reached the ceiling doses equivalent to 600 mg/day of dextromethorphan or 3000 mg/day of gabapentin or their maximally tolerated dose (the dose just causing side effects, MTD). The titration regimen and the number of capsules per dose for each treatment were the same in each treatment group, in order to maintain double blinded conditions.
# The primary endpoint was mean spontaneous pain intensity averaged weekly, from the start of study drug until the end of Week 5 for each treatment period and overall for the 5 weeks, assessed in a diary in which pain ratings were recorded 5-times daily, and evaluated with the 20-point Gracely pain scale based on 13 words (“faint” to “extremely intense”) (Gracely R H, et al. Pain 5:5-18(1978)).
# Secondary endpoints were assessed at a clinic visit on the final day of each treatment period, and included: 1) Global Pain Intensity (6-item categorical scale); 2) Global Pain Relief (6-item categorical scale); 3) pain intensity (Gracely Scale) of individual pain descriptors (burning pain; aching pain; tingling pain; cold pain; brief lancinating pain; deep stabbing pain; constricting pain; and touch-evoked pain (allodynia)); 4) areas of evoked pain: a) allodynia and b) pinprick-evoked hyperalgesia; 5) quality of life, assessed using the Duke Health Profile (Parkerson, G R, et al. Medical Care 28:1056-1069(1990)). 6) Patient Satisfaction (5-item categorical scale); 7) patients' assessment of best treatment. Allodynia was mapped by stroking the skin with the distal 5 mm of the corner of a 2×2 gauze sponge at standard pressure, at a rate of 1 cm/sec. Pinprick-evoked hyperalgesia was mapped using a standard safety pin that was pressed against the skin until dimpling was visible. […]
# [2] = Crossover trial: adverse effects; format: in vivo, human; conditions: for confusion, proportion of patients / dizziness, proportion of patients / euphoria, proportion of patients / fatigue, proportion of patients / somnolence, proportion of patients / speech difficulty, proportion of patients / urinary incontinence, proportion of patients / urinary tract infection, proportion of patients: human, in vivo, oral, 5 weeks
# Method: Presence and intensity (5-item categorical scale) of adverse effects were assessed continuously using an open question.
# [3] = test system: central neuropathic pain following traumatic spinal cord injury; experiment: Crossover trial: quality of life, Duke Health Profile; format: in vivo, human; conditions: for Pain domain, compared to placebo: combination p=0.002, dextromethorphan p=0.001, gabapentin p=0.03
# Method: (§2) Secondary endpoints were assessed at a clinic visit on the final day of each treatment period, and included: 1) Global Pain Intensity (6-item categorical scale); 2) Global Pain Relief (6-item categorical scale); 3) pain intensity (Gracely Scale) of individual pain descriptors (burning pain; aching pain; tingling pain; cold pain; brief lancinating pain; deep stabbing pain; constricting pain; and touch-evoked pain (allodynia)); 4) areas of evoked pain: a) allodynia and b) pinprick-evoked hyperalgesia; 5) quality of life, assessed using the Duke Health Profile (Parkerson, G R, et al. Medical Care 28:1056-1069(1990)). 6) Patient Satisfaction (5-item categorical scale); 7) patients' assessment of best treatment. Allodynia was mapped by stroking the skin with the distal 5 mm of the corner of a 2×2 gauze sponge at standard pressure, at a rate of 1 cm/sec. Pinprick-evoked hyperalgesia was mapped using a standard safety pin that was pressed against the skin until dimpling was visible. Ambient temperature was maintained at 24 degrees centigrade. All mapping took place within a 30-minute period. The delineated areas of evoked pain were recorded using photographs of 4 views (anterior/posterior/right lateral/left lateral), which were scanned, and the areas of each of the 4 views were summed to determine the composite area.
# [4] = test system: central neuropathic pain following traumatic spinal cord injury; experiment: Crossover trial: evoked pain (touch-evoked allodynia, pinprick-evoked hyperalgesia); format: in vivo, human; conditions: for intensity of touch-evoked allodynia, compared to placebo: 14 subjects with allodynia, dextromethorphan p=0.03, gabapentin p=0.01, combination p=0.001; for mean area of allodynia after treatment / mean area of allodynia, reduction from baseline: baseline 362±496 cm^2; for mean area of pinprick hyperalgesia after treatment / mean area of pinprick hyperalgesia, reduction from baseline: baseline 371±523 cm^2; for areas of pinprick hyperalgesia, difference: combination p=0.03, dextromethorphan p=0.02, gabapentin p=0.03
# Method: as §2
# neuropathic pain = conditions: cited from earlier work
# [5] = Crossover trial: titration to maximally tolerated dose (MTD); format: in vivo, human; conditions: drug alone; for mean dose during Week 5: after 4 weeks of titration to MTD; for maximum daily dose administered: titration to MTD
# From the text: as §1
# spinally injured rats = conditions: repeated doses; cited from earlier work
# SCI pain [6] = conditions: acute parenteral administration; cited from earlier work
# SCI pain [7] = conditions: chronic oral agents; cited from earlier work
SMILES,patients choosing treatment as best pain relief [1],"patients choosing treatment as best, balance between analgesia and side effects [1]","overall patient satisfaction at the end of each treatment period, compared to placebo [1]",patients with at least moderate or better pain relief [1],"confusion, proportion of patients [2]","dizziness, proportion of patients [2]","euphoria, proportion of patients [2]","fatigue, proportion of patients [2]","somnolence, proportion of patients [2]","speech difficulty, proportion of patients [2]","urinary incontinence, proportion of patients [2]","urinary tract infection, proportion of patients [2]","Pain domain, compared to placebo [3]","intensity of touch-evoked allodynia, compared to placebo [4]",mean area of allodynia after treatment [4],"mean area of allodynia, reduction from baseline [4]",mean area of pinprick hyperalgesia after treatment [4],"mean area of pinprick hyperalgesia, reduction from baseline [4]","areas of pinprick hyperalgesia, difference [4]",mean dose during Week 5 [5],other results
"COc1ccc2c(c1)[C@]13CCCC[C@@H]1[C@H](C2)N(C)CC3 [dextromethorphan, dextromethorphan hydrobromide]",33.3%,17.5%,significantly better,50%,33%,67%,24%,52%,62%,10%,5%,38%,significantly better than placebo,significantly reduced,183±321 cm^2,49%,122±287 cm^2,67%,significant difference,416 ± 34 mg/day,"SCI (spontaneous) pain compared to placebo ([1]; hydrobromide): significant reduction; also recorded: superior to placebo; intensity of burning pain, compared to placebo ([1]; combination p=0.005, dextromethorphan p=0.001): significant relief; brief paroxysms of lancinating pain, compared to placebo ([1]; combination p=0.03, dextromethorphan p=0.003): significant relief; proportion of patients with cognitive side effects, compared to either placebo or gabapentin ([2]; p<0.002): significantly larger proportion; proportion of patients with other side effects, compared to placebo ([2]; p=0.01): significantly larger proportion; Physical Health measure, compared to placebo ([3]; combination p=0.001, dextromethorphan p=0.02): significantly better than placebo; General Health measure, compared to placebo ([3]; combination p=0.01, dextromethorphan p=0.04): significantly better than placebo; analgesic effect in patients with neuropathic pain (neuropathic pain; dextromethorphan alone at 81 mg/day): inability; effect in patients with peripheral neuropathic pain (neuropathic pain; human, in vivo): marginal effect; mean daily dose [5]: 416 mg; maximum daily dose administered [5]: 470 ± 29 mg/day"
NCC1(CC(=O)O)CCCCC1 [gabapentin],27.8%,23.5%,significantly better,39%,22%,22%,6%,33%,33%,0%,11%,22%,significantly better than placebo,significantly reduced,106±231 cm^2,71%,152±332 cm^2,59%,significant difference,2657 ± 155 mg/day,"SCI (spontaneous) pain compared to placebo [1]: significant reduction; also recorded: superior to placebo; chronic hypersensitivity (spinally injured rats): alleviated chronic hypersensitivity; area of allodynia, compared to placebo ([4]; combination p=0.05, gabapentin p=0.02): significant difference from placebo; mean daily dose [5]: 2657 mg; maximum daily dose administered [5]: 2717 ± 148 mg/day"
CNC1(c2ccccc2Cl)CCCCC1=O (centres unmarked) [ketamine],,,,,,,,,,,,,,,,,,,,,spontaneous and evoked SCI pain (SCI pain [6]): reduced both spontaneous and evoked SCI pain
Cc1cccc(C)c1OCC(C)N (centres unmarked) [mexiletine],,,,,,,,,,,,,,,,,,,,,results of randomized controlled trials in SCI pain (SCI pain [7]): negative
O=c1n(CCCN2CCN(c3cccc(Cl)c3)CC2)nc2ccccn12 [trazodone],,,,,,,,,,,,,,,,,,,,,results of randomized controlled trials in SCI pain (SCI pain [7]): negative
